From patent publication US20250388605A1, “HETEROBIFUNCTIONAL COMPOUNDS AND METHODS OF TREATING DISEASE” (Halda Therapeutics OpCo, Inc., priority 2022, published 2025)

Tests used:
[1] = target: T1, BRD4-BD2 (Homo sapiens, UniProt O60885); assay: Binding affinity to BRD4-BD2 (bromoKdELECT assay); details: 11-point 3-fold dilution series
T1 construct: made in house; host or cells: T7 phage grown in an E. coli host derived from the BL21 strain

[2] = tested on: T-Rex 293 cell line SC3 cells lacking increased expression of androgen receptor protein; assay: Cellular growth inhibition, T-Rex 293 SC3 cells without doxycycline (no increased androgen receptor expression), CellTiter-Glo; type: cell-based; details: T-Rex 293 SC3 cells not exposed to doxycycline (no increased androgen receptor expression), 72 hours
Summary of the method: (§1)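 Doxycycline (10 ng/mL) was either included or omitted to toggle wild-type androgen receptor expression in SC3 cells, a T-Rex 293 clone, grown in stripped-serum, phenol red-free medium. After 72 hours with compound, viable cells were quantified by CellTiter-Glo 2.0.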

[3] = tested on: T-Rex 293 cell line SC3 cells having increased expression of androgen receptor protein due to exposure to doxycycline; assay: Cellular growth inhibition, T-Rex 293 SC3 cells with doxycycline (increased androgen receptor expression), CellTiter-Glo; type: cell-based; details: T-Rex 293 SC3 cells with 10 ng/mL doxycycline (increased androgen receptor expression), 72 hours, CellTiter-Glo 2.0
Summary of the method: as §1

[4] = tested on: VCaP cells; assay: Cellular growth inhibition assay for VCaP cells, CellTiter-Glo; type: cell-based, human; details: 72 hours
Summary of the method: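 GI50 values come from four-parameter curve fits of luminescence data normalized to a zero baseline. Compound, in medium with 0.5% DMSO, was added one day after plating and left for 72 h before CellTiter-Glo 2.0 addition.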

SMILES | Kd [1] [nM] | GI50 [2] [nM] | GI50 [3] [nM] | GI50 [4] [nM] | GI50 ([4]; Homo sapiens) [nM]
Cn1cc(-c2cc(C(C)(C)O)ccc2Oc2cccc(N3CC(CC4CCN(c5ncc(C(=O)N[C@H]6C(C)(C)[C@H](Oc7ccc(C#N)c(Cl)c7)C6(C)C)cn5)CC4)C3)c2F)c2cc[nH]c2c1=O [Compound I-196] | < 50 | > 3000 | < 500 | > 3000 | 
CN(c1ccc(Oc2ccc(C(C)(C)O)cc2-c2cn(C)c(=O)c3[nH]ccc23)cc1)C1CCN(c2ncc(C(=O)N[C@H]3C(C)(C)[C@H](Oc4ccc(C#N)c(Cl)c4)C3(C)C)cn2)CC1 [Compound I-197] | < 50 | < 500 | < 500 |  | < 500
Cn1cc(-c2cc(C(C)(C)O)ccc2Oc2ccc(CCC3CCN(c4ncc(C(=O)N[C@H]5C(C)(C)[C@H](Oc6ccc(C#N)c(Cl)c6)C5(C)C)cn4)CC3)cc2)c2cc[nH]c2c1=O [Compound I-203] | > 2500 | > 3000 | < 500 |  | 1500 to 3000
CN(CCCc1ccc(Oc2ccc(C(C)(C)O)cc2-c2cn(C)c(=O)c3[nH]ccc23)cc1)c1ncc(C(=O)N[C@H]2C(C)(C)[C@H](Oc3ccc(C#N)c(Cl)c3)C2(C)C)cn1 [Compound I-211] | 50 to 500 | < 500 | < 500 |  | < 500
CC(C)N(CC1CCN(c2ncc(C(=O)N[C@H]3C(C)(C)[C@H](Oc4ccc(C#N)c(Cl)c4)C3(C)C)cn2)CC1)[C@H]1C[C@H](Oc2cccc(Oc3ccc(C(C)(C)O)cc3-c3cn(C)c(=O)c4[nH]ccc34)c2F)C1 [Compound I-214] | < 50 | < 500 | < 500 |  | < 500
CCS(=O)(=O)c1ccc(OC(CCCCN2CCN(c3ncc(C(=O)NC4C(C)(C)C(Oc5ccc(C#N)c(Cl)c5)C4(C)C)cn3)CC2)C2CC2)c(-c2cn(C)c(=O)c3[nH]ccc23)c1 (centres unmarked) [Compound I-223, N-[3-(3-chloro-4-cyano-phenoxy)-2,2,4,4-tetramethyl-cyclobutyl]-2-[4-[5-cyclopropyl-5-[4-ethylsulfonyl-2-(6-methyl-7-oxo-1H-pyrrolo[2,3-c]pyridin-4-yl)phenoxy]pentyl]piperazin-1-yl]pyrimidine-5-carboxamide] | < 50 | < 500 | < 500 |  | < 500
Cn1cc(-c2cc(C(C)(C)O)ccc2Oc2ccc(N3CC(CN4CC5CC4CN5c4ncc(C(=O)N[C@H]5C(C)(C)[C@H](Oc6ccc(C#N)c(Cl)c6)C5(C)C)cn4)C3)cc2)c2cc[nH]c2c1=O (some centres unmarked) [Compound I-228] | < 50 | < 500 | < 500 |  | < 500
CCS(=O)(=O)c1ccc(OCC(CCCN2CCN(c3ncc(C(=O)NC4C(C)(C)C(Oc5ccc(C#N)c(Cl)c5)C4(C)C)cn3)CC2)C2CC2)c(-c2cn(C)c(=O)c3[nH]ccc23)c1 (centres unmarked) [Compound I-231, N-[3-(3-chloro-4-cyano-phenoxy)-2,2,4,4-tetramethyl-cyclobutyl]-2-[4-[4-cyclopropyl-5-[4-ethylsulfonyl-2-(6-methyl-7-oxo-1H-pyrrolo[2,3-c]pyridin-4-yl)phenoxy]pentyl]piperazin-1-yl]pyrimidine-5-carboxamide] | < 50 | < 500 | < 500 |  | < 500
